Data reported in ChEMBL document CHEMBL1128905, “Synthesis and biological activity of 5-heteroaryl benzodiazepines: analogues of YM022” (Bioorg Med Chem Lett, 1996).

Key:
[1] = molecular target: T1, Gastrin/cholecystokinin type B receptor (Rattus norvegicus, UniProt P30553); test: Binding affinity towards gastrin/Cholecystokinin type B receptor from rat brain using [125I]CCK-8 as the radioligand
T1 sequence (P30553 whole entry): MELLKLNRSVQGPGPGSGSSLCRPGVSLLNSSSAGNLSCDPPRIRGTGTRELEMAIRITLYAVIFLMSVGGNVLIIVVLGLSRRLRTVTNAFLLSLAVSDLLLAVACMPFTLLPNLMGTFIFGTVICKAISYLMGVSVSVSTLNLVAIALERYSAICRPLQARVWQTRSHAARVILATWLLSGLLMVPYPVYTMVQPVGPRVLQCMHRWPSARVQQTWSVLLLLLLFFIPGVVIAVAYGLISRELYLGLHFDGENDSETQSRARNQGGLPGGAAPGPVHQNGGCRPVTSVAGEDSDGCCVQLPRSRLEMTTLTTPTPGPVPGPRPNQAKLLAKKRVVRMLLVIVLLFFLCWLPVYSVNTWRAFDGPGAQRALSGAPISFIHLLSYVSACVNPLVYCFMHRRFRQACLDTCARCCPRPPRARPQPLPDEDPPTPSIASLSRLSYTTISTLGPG

[2] = molecular target: T2, Cholecystokinin receptor type A (Rattus norvegicus, UniProt P30551); test: Binding affinity towards Cholecystokinin type A receptor from rat pancreas using [I125]-L-364,718 as the radioligand
T2 sequence (P30551 whole entry): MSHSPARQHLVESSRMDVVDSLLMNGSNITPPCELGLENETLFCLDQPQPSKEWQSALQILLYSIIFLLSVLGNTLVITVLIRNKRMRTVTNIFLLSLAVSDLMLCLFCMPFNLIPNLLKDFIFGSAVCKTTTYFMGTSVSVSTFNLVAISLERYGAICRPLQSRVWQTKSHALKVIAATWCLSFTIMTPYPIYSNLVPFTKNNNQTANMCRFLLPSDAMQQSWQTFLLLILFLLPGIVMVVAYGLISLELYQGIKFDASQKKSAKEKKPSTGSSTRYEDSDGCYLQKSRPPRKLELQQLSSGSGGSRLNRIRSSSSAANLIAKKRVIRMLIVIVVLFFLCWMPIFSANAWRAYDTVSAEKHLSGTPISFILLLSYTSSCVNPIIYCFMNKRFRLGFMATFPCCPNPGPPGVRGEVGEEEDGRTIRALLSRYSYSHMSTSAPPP

Rattus norvegicus [3] = test: Compound was evaluated for in vivo inhibition of pentagastrin induced gastric acid secretion in rats after iv administration at dose of 0.1 umol/kg; type: functional; conditions: Stomach
Rattus norvegicus [4] = test: Compound was evaluated for in vivo inhibition of pentagastrin induced gastric acid secretion in rats by 50% after iv administration; type: functional; conditions: Stomach

Question: How did the IC50 [1] turn out when Cc1cccc(NC(=O)NC2N=C(c3ccncc3)c3ccccc3N(CC(=O)c3ccccc3C)C2=O)c1 (centres undefined) was run?
Answer: 18 nM

Question: What about the IC50 [2] of the same compound?
Answer: 670 nM

Question: And the inhibition in vivo at 0.1 µmol/kg (Rattus norvegicus [3])?
Answer: 37%

Question: Cc1cccc(NC(=O)NC2N=C(c3ccncc3)c3ccccc3N(CC(=O)C3CCCC3)C2=O)c1 (centres undefined) was tested. Which IC50 [1] did it give?
Answer: 48 nM

Question: What about the IC50 [2] of the same compound?
Answer: > 10000 nM

Question: What about the inhibition in vivo at 0.1 µmol/kg (Rattus norvegicus [3]) of the same compound?
Answer: 15%

Question: With Cc1cccc(NC(=O)NC2N=C(c3ccccc3)c3ccccc3N(CC(=O)C(C)(C)C)C2=O)c1 (centres undefined) as the compound, how does the IC50 [2] read?
Answer: 111 nM

Question: For Cc1cccc(NC(=O)NC2N=C(c3cnc[nH]3)c3ccccc3N(CC(=O)C(C)(C)C)C2=O)c1 (centres undefined), which IC50 [1] is on record?
Answer: 26.1 nM

Question: What about the IC50 [2] of the same compound?
Answer: 232 nM

Question: And the inhibition in vivo at 0.1 µmol/kg (Rattus norvegicus [3])?
Answer: 25%

Question: With Cc1cccc(NCNC2N=C(c3nccs3)c3ccccc3N(CC(=O)C(C)(C)C)C2=O)c1 (centres undefined) as the compound, how does the IC50 [1] read?
Answer: 0.8 nM

Question: And the IC50 [2]?
Answer: 433 nM

Question: What about the inhibition in vivo at 0.1 µmol/kg (Rattus norvegicus [3]) of the same compound?
Answer: 58%

Question: Which IC50 [1] does the source give for Cc1cccc(NC(=O)NC2N=C(c3ccccn3)c3ccccc3N(CC(=O)c3ccccc3C)C2=O)c1 (centres undefined) here?
Answer: 0.13 nM

Question: What about the IC50 [2] of the same compound?
Answer: 980 nM

Question: What about the ED50 (Rattus norvegicus [4]) of the same compound?
Answer: 0.0167 µmol/kg

Question: What does the source list for Cc1cccc(NC(=O)NC2N=C(c3nccn3C)c3ccccc3N(CC(=O)C(C)(C)C)C2=O)c1 (centres undefined)?
Answer: IC50 [1]: 4.52 nM; IC50 [2]: 844 nM; inhibition in vivo at 0.1 µmol/kg (Rattus norvegicus [3]): 49%

Question: For Cc1cccc(NC(=O)NC2N=C(c3ccccn3)c3ccccc3N(CC(=O)C(C)(C)C)C2=O)c1 (centres undefined), which IC50 [1] is on record?
Answer: 0.44 nM

Question: What about the IC50 [2] of the same compound?
Answer: 470 nM

Question: What about the ED50 (Rattus norvegicus [4]) of the same compound?
Answer: 0.016 µmol/kg

Question: With Cc1cccc(NCNC2N=C(c3ccn[nH]3)c3ccccc3N(CC(=O)C(C)(C)C)C2=O)c1 (centres undefined) as the compound, how does the IC50 [1] read?
Answer: > 100 nM

Question: What about the IC50 [2] of the same compound?
Answer: 105 nM

Question: What about the inhibition in vivo at 0.1 µmol/kg (Rattus norvegicus [3]) of the same compound?
Answer: 18%

Question: How did the IC50 [1] turn out when Cc1cccc(NC(=O)NC2N=C(c3ccccn3)c3ccccc3N(CC(=O)C3CCCC3)C2=O)c1 (centres undefined) was run?
Answer: 0.12 nM

Question: And the IC50 [2]?
Answer: 2600 nM

Question: And the ED50 (Rattus norvegicus [4])?
Answer: 0.0189 µmol/kg

Question: For Cc1cccc(NC(=O)NC2N=C(c3cccnc3)c3ccccc3N(CC(=O)C3CCCC3)C2=O)c1 (centres undefined), which IC50 [1] is on record?
Answer: 1.6 nM

Question: And the IC50 [2]?
Answer: 80 nM

Question: What about the inhibition in vivo at 0.1 µmol/kg (Rattus norvegicus [3]) of the same compound?
Answer: 34%

Question: For Cc1cccc(NC(=O)NC2N=C(c3ccccc3)c3ccccc3N(CC(=O)c3ccccc3C)C2=O)c1 (centres undefined), which IC50 [1] is on record?
Answer: 0.11 nM

Question: And the IC50 [2]?
Answer: 146 nM

Question: How did the IC50 [1] turn out when Cc1cccc(NC(=O)NC2N=C(c3ncc[nH]3)c3ccccc3N(CC(=O)C(C)(C)C)C2=O)c1 (centres undefined) was run?
Answer: 8 nM

Question: What about the IC50 [2] of the same compound?
Answer: 2610 nM

Question: And the inhibition in vivo at 0.1 µmol/kg (Rattus norvegicus [3])?
Answer: 14%

Question: What does the source list for Cc1cccc(NC(=O)NC2N=C(c3cnccn3)c3ccccc3N(CC(=O)C(C)(C)C)C2=O)c1 (centres undefined)?
Answer: IC50 [1]: 0.88 nM; IC50 [2]: 1360 nM; inhibition in vivo at 0.1 µmol/kg (Rattus norvegicus [3]): 55%
